Reference: US12258328B2, “6-membered heteroaryl-containing aminopyridine compounds as EGFR inhibitors” (YUHAN CORPORATION, priority 2021, dated 2025)
Like-named read-outs stand apart in the source and are kept apart here.

How the values were obtained:
EGFR L858R/C797S = EGFR L858R/C797S (Homo sapiens, UniProt P00533, C797S/L858R); assay: Biochemical EGFR kinase assay (Lance Ultra TR-FRET), double mutant L858R/C797S
Procedure, shortened: (§1)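 Step 1: compound in kinase buffer, 0.003–10 μM. Step 2: kinase reaction 1 h at room temperature. Step 4: TR-FRET read at 615/665 nm; IC50 calculated.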

EGFR del19/T790M/C797S = EGFR del19/T790M/C797S (Homo sapiens, UniProt P00533, C797S/DEL746-750/T790M); assay: Biochemical EGFR kinase assay (Lance Ultra TR-FRET), triple mutant del19/T790M/C797S
Procedure, shortened: as §1

EGFR del19/C797S = EGFR del19/C797S (Homo sapiens, UniProt P00533, C797S/DEL746-750); assay: Biochemical EGFR kinase assay (Lance Ultra TR-FRET), double mutant del19/C797S
Procedure, shortened: as §1

EGFR L858R/T790M/C797S = EGFR L858R/T790M/C797S (Homo sapiens, UniProt P00533, C797S/L858R/T790M); assay: Biochemical EGFR kinase assay (Lance Ultra TR-FRET), triple mutant L858R/T790M/C797S
Procedure, shortened: as §1

EGFR wildtype = EGFR wildtype (Homo sapiens, UniProt P00533); assay: Biochemical EGFR kinase assay (Lance Ultra TR-FRET), wildtype
Procedure, shortened: as §1

[1] = ATP at Km, read-out: IC50 L858R/C797S, Km ATP
[2] = ATP at Km, read-out: IC50 del19/T790M/C797S, Km ATP
[3] = ATP at Km, read-out: IC50 del19/C797S, Km ATP
[4] = ATP at Km, read-out: IC50 L858R/T790M/C797S, Km ATP
[5] = ATP at Km, read-out: IC50 WT, Km ATP
[6] = IC50 L858R/C797S (nM) 100 μM ATP, 100 μM ATP
[7] = IC50 del19/T790M/C797S (nM) 100 μM ATP, 100 μM ATP
[8] = Km ATP, read-out: IC50 del19/T790M/C797S (nM) Km ATP
[9] = IC50 del19/C797S (nM) 100 μM ATP, 100 μM ATP
[10] = IC50 L858R/T790M/C797S (nM) 100 μM ATP, 100 μM ATP
[11] = Km ATP, read-out: IC50 L858R/T790M/C797S (nM) Km ATP
[12] = IC50 WT (nM) 100 μM ATP, 100 μM ATP
[13] = IC50 del19/T790M/C797S, 100 μM ATP
[14] = IC50 L858R/T790M/C797S, 100 μM ATP
[15] = Km ATP, read-out: IC50 L858R/C797S (nM) Km ATP
[16] = Km ATP, read-out: IC50 del19/C797S (nM) Km ATP
[17] = Km ATP, read-out: IC50 WT (nM) Km ATP

Chain of EGFR L858R/T790M/C797S (P00533 25-1210 T790M/C797S/L858R): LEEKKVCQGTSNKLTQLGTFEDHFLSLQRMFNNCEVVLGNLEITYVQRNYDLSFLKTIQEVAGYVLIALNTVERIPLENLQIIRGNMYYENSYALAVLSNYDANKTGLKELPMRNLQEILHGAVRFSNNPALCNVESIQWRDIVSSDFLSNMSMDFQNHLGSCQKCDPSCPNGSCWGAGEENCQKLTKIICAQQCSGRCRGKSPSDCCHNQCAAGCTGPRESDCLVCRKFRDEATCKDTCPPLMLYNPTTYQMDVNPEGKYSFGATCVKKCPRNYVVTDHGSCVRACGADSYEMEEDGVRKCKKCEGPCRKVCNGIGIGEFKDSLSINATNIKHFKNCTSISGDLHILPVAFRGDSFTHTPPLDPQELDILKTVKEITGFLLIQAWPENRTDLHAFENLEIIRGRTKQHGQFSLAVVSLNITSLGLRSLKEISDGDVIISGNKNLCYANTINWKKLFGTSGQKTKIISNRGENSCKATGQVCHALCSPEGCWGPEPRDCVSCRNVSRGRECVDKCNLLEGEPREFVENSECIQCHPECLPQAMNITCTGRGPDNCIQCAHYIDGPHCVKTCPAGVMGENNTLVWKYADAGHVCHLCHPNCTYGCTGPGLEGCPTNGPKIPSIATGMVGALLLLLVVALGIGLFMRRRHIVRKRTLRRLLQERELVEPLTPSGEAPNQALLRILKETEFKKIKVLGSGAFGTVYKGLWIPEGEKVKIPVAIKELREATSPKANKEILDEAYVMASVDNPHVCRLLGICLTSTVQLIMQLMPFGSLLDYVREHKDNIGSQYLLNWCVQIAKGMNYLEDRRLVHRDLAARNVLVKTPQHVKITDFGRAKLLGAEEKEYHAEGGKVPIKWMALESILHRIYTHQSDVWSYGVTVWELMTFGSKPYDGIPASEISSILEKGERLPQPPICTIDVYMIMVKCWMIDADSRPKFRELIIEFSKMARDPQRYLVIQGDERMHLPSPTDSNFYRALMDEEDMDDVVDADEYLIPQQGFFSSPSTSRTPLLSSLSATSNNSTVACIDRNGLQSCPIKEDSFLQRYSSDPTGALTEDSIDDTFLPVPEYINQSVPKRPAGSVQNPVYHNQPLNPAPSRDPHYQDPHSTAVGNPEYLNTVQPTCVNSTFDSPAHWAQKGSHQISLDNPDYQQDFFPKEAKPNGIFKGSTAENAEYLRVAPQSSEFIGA
Chain of EGFR del19/T790M/C797S (P00533 with tags, fused parts or gaps DEL746-750/T790M/C797S): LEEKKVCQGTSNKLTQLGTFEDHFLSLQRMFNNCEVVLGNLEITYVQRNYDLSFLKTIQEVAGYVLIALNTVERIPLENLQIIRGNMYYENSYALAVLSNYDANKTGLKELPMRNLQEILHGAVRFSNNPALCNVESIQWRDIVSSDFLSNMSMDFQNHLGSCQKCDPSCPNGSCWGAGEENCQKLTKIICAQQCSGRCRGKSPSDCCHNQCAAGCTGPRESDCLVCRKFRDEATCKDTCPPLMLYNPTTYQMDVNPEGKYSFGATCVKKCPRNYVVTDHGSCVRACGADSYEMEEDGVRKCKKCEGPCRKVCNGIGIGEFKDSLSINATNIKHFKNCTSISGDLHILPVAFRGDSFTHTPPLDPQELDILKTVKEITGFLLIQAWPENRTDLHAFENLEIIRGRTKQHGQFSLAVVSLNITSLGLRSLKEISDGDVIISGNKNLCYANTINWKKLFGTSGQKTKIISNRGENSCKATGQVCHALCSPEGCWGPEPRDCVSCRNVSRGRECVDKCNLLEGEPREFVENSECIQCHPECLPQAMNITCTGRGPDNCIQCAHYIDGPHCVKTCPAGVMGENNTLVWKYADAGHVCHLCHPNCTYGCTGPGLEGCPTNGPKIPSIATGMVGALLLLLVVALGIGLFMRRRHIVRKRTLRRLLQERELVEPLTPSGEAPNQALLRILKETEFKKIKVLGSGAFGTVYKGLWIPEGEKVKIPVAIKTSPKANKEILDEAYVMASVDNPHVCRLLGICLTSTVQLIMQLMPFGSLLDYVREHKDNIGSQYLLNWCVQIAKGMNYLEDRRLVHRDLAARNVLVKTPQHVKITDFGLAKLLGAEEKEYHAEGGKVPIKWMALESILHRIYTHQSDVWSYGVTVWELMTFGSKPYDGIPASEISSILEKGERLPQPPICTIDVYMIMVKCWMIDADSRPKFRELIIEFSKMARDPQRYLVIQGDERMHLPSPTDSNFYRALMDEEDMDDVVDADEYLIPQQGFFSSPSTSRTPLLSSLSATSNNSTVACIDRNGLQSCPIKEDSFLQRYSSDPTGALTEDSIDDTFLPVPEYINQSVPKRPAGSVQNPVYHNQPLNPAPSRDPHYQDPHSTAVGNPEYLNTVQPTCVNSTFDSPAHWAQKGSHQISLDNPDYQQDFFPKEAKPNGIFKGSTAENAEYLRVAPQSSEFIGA
Chain of EGFR wildtype (P00533 25-1210): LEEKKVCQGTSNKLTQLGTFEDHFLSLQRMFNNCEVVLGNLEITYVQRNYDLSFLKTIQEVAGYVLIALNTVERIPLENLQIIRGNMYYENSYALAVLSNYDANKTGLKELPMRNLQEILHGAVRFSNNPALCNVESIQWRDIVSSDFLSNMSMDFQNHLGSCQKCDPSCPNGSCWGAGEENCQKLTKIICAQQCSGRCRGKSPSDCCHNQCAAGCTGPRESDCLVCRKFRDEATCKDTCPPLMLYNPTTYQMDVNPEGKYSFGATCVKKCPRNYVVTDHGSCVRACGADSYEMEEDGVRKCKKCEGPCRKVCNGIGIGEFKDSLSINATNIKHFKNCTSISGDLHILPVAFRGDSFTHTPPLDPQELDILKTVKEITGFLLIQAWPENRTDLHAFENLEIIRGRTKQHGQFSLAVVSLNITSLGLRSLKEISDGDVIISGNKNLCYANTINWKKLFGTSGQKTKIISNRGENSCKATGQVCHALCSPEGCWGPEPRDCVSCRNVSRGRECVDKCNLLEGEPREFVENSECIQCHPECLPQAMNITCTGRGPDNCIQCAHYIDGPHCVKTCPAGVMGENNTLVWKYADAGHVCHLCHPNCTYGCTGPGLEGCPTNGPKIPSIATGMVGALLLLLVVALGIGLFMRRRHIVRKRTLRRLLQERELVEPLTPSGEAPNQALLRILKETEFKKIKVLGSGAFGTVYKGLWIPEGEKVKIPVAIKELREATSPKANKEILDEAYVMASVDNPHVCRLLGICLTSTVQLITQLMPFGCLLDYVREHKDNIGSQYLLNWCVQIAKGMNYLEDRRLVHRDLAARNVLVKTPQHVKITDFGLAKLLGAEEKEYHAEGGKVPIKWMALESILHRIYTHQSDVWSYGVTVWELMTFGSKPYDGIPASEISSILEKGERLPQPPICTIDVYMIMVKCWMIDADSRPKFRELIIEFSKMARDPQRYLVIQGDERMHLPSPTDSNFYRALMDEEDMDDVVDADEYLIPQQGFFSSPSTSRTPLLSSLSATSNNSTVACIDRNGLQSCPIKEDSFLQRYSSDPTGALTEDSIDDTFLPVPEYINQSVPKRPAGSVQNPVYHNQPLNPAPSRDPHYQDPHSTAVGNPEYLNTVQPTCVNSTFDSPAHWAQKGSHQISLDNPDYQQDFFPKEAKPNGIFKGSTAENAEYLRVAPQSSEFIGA
Chain of EGFR del19/C797S (P00533 with tags, fused parts or gaps DEL746-750/C797S): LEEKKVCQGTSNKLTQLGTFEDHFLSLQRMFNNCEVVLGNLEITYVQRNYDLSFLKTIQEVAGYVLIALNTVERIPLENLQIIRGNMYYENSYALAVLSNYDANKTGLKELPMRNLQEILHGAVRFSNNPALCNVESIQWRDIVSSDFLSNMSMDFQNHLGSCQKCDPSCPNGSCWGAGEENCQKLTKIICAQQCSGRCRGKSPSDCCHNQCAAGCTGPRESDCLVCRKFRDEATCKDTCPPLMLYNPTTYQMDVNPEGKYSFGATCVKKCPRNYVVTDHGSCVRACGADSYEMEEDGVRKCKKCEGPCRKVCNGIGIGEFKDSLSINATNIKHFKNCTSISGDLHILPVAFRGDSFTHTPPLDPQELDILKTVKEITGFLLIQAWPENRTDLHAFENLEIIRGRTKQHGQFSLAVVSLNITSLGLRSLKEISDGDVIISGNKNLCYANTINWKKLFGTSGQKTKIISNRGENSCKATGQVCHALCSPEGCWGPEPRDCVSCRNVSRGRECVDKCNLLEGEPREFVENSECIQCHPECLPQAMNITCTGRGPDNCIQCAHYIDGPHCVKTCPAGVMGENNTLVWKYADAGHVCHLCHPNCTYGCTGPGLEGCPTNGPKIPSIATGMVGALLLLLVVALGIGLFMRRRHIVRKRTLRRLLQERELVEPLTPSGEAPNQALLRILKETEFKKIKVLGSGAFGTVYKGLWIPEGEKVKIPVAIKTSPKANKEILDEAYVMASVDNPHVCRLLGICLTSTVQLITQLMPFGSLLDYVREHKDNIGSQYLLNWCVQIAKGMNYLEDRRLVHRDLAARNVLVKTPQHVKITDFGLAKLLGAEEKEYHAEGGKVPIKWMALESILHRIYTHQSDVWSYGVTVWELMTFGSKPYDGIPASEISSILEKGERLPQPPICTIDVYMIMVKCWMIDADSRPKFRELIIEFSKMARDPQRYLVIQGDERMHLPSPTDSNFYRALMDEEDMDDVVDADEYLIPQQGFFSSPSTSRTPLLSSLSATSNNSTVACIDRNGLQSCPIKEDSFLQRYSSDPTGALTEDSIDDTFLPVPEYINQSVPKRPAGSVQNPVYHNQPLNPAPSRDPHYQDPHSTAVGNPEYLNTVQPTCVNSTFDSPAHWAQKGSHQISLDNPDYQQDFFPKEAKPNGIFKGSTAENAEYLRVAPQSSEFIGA

Row | IC50 (EGFR L858R/C797S; [1]) | IC50 (EGFR del19/T790M/C797S; [2]) | IC50 (EGFR del19/C797S; [3]) | IC50 (EGFR L858R/T790M/C797S; [4]) | IC50 (EGFR wildtype; [5]) | IC50 (EGFR L858R/C797S; [6]) | IC50 (EGFR del19/T790M/C797S; [7]) | IC50 (EGFR del19/T790M/C797S; [8]) | IC50 (EGFR del19/C797S; [9]) | IC50 (EGFR L858R/T790M/C797S; [10]) | IC50 (EGFR L858R/T790M/C797S; [11]) | IC50 (EGFR wildtype; [12]) | IC50 (EGFR L858R/C797S; IC50 L858R/C797S, 100 μM ATP) | IC50 (EGFR del19/T790M/C797S; [13]) | IC50 (EGFR del19/C797S; IC50 del19/C797S, 100 μM ATP) | IC50 (EGFR L858R/T790M/C797S; [14]) | IC50 (EGFR wildtype; IC50 WT, 100 μM ATP) | IC50 (EGFR L858R/C797S; [15]) | IC50 (EGFR del19/C797S; [16]) | IC50 (EGFR wildtype; [17]) | SMILES
1 |  |  |  |  |  |  |  | 0.03 nM |  |  | 0.1 nM |  |  |  |  |  |  | 0.8 nM | 1.2 nM | 12.4 nM | CN1CCC(Oc2ccc(-c3cnc(Nc4ccnc(-c5cnn(CC(F)F)c5)n4)cc3NC3CCCC(F)C3)nc2)CC1 (stereo not shown) [Example 141, N^6′-(2-(1-(2,2-Difluoroethyl)-1H-pyrazol-4-yl)pyrimidin-4-yl)-N^4′-(3-fluorocyclohexyl)-5-((1-methylpiperidin-4-yl)oxy)-[2,3′-bipyridine]-4′,6′-diamine]
2 | 1.3 nM | 0.7 nM | 0.3 nM | 0.2 nM | 0.4 nM |  |  |  |  |  |  |  | 4.8 nM | 0.6 nM | 0.8 nM | 0.2 nM | 93.2 nM |  |  |  | CN(C)C(=O)[C@H]1CC[C@@H](Nc2cc(Nc3ccnc(-c4cnn(S(=O)(=O)C5CC5)c4)n3)ncc2-c2ccc(C(C)(C)O)cn2)CC1 [Example 172, (1s,4s)-4-((6′-((2-(1-(Cyclopropylsulfonyl)-1H-pyrazol-4-yl)pyrimidin-4-yl)amino)-5-(2-hydroxypropan-2-yl)-[2,3′-bipyridin]-4′-yl)amino)-N,N-dimethylcyclohexane-1-carboxamide]
3 | 0.8 nM | 0.1 nM | 0.8 nM | 0.1 nM | 6.9 nM |  |  |  |  |  |  |  | 11.2 nM | 0.1 nM | 0.6 nM | 0.1 nM | 2930 nM |  |  |  | CS(=O)(=O)c1ccc(-c2cnc(Nc3ccnc(-c4cnn(S(=O)(=O)C5CC5)c4)n3)cc2N[C@H]2CC[C@@H](NCCF)CC2)nc1 [Example 157, N^6′-(2-(1-(Cyclopropylsulfonyl)-1H-pyrazol-4-yl)pyrimidin-4-yl)-N^4′-((1s,4s)-4-((2-fluoroethyl)amino)cyclohexyl)-5-(methylsulfonyl)-[2,3′-bipyridine]-4′,6′-diamine]
4 |  |  |  |  |  | 15.7 nM | 0.2 nM | 0.1 nM | 0.9 nM | 0.1 nM | 0.1 nM | 3080 nM |  |  |  |  |  | 1 nM | 0.5 nM | 5.8 nM | O=S(=O)(C1CC1)n1cc(-c2nccc(Nc3cc(N[C@H]4CC[C@@H](NCCF)CC4)c(-c4ccccn4)cn3)n2)cn1 [Example 36, N^6′-(2-(1-(Cyclopropylsulfonyl)-1H-pyrazol-4-yl)pyrimidin-4-yl)-N^4′-((1s,4s)-4-((2-fluoroethyl)amino)cyclohexyl)-[2,3′-bipyridine]-4′,6′-diamine]
5 | 15.4 nM | 0.7 nM | 9.6 nM | 0.7 nM | 138 nM |  |  |  |  |  |  |  | 63 nM | 3.4 nM | 16.2 nM |  | 1540 nM |  |  |  | C[C@]1(O)CC[C@@H](Nc2cc(Nc3ccnc(-c4cnn(S(=O)(=O)C5CC5)c4)n3)ncc2-c2cccc(CC(F)(F)F)n2)CC1 [Example 293, (1s,4s)-4-((6′-((2-(1-(Cyclopropylsulfonyl)-1H-pyrazol-4-yl)pyrimidin-4-yl)amino)-6-(2,2,2-trifluoroethyl)-[2,3′-bipyridin]-4′-yl)amino)-1-methylcyclohexan-1-ol]

Continued, compound first:

Row | SMILES | IC50 (EGFR L858R/C797S; [1]) | IC50 (EGFR del19/T790M/C797S; [2]) | IC50 (EGFR del19/C797S; [3]) | IC50 (EGFR L858R/T790M/C797S; [4]) | IC50 (EGFR wildtype; [5]) | IC50 (EGFR L858R/C797S; [6]) | IC50 (EGFR del19/T790M/C797S; [7]) | IC50 (EGFR del19/T790M/C797S; [8]) | IC50 (EGFR del19/C797S; [9]) | IC50 (EGFR L858R/T790M/C797S; [10]) | IC50 (EGFR L858R/T790M/C797S; [11]) | IC50 (EGFR wildtype; [12]) | IC50 (EGFR L858R/C797S; IC50 L858R/C797S, 100 μM ATP) | IC50 (EGFR del19/T790M/C797S; [13]) | IC50 (EGFR del19/C797S; IC50 del19/C797S, 100 μM ATP) | IC50 (EGFR L858R/T790M/C797S; [14]) | IC50 (EGFR wildtype; IC50 WT, 100 μM ATP) | IC50 (EGFR L858R/C797S; [15]) | IC50 (EGFR del19/C797S; [16]) | IC50 (EGFR wildtype; [17])
6 | CN1CCC(Oc2ccc(-c3cnc(Nc4ccnc(-c5cnn(S(=O)(=O)C6CC6)c5)n4)cc3NC3CCN(CC(F)F)CC3)nc2)CC1 [Example 258, N^6′-(2-(1-(Cyclopropylsulfonyl)-1H-pyrazol-4-yl)pyrimidin-4-yl)-N^4′-(1-(2,2-difluoroethyl)piperidin-4-yl)-5-((1-methylpiperidin-4-yl)oxy)-[2,3′-bipyridine]-4′,6′-diamine] | 0.1 nM | 0.2 nM | 0.7 nM | 0.1 nM | 14.1 nM |  |  |  |  |  |  |  |  |  |  |  |  |  |  | 
7 | CC(C)(O)[C@H]1CC[C@@H](Nc2cc(Nc3ccnc(-c4cnn(S(=O)(=O)C5CC5)c4)n3)ncc2-c2ccc(CN3CCC(O)CC3)cn2)CC1 [Example 98, 1-((6′-((2-(1-(Cyclopropylsulfonyl)-1H-pyrazol-4-yl)pyrimidin-4-yl)amino)-4′-(((1s,4s)-4-(2-hydroxypropan-2-yl)cyclohexyl)amino)-[2,3′-bipyridin]-5-yl)methyl) piperidin-4-ol] |  |  |  |  |  | 1.9 nM | 0.5 nM | 0.4 nM | 0.3 nM | 0.2 nM | 0.1 nM | 152 nM |  |  |  |  |  |  |  | 
8 | CN(C)CCOc1ccc(-c2cnc(Nc3ccnc(-c4cnn(S(=O)(=O)C5CC5)c4)n3)cc2N[C@H]2CC[C@@H](CO)CC2)nc1 [Example 209, ((1s,4s)-4-((6′-((2-(1-(Cyclopropylsulfonyl)-1H-pyrazol-4-yl)pyrimidin-4-yl)amino)-5-(2-(dimethylamino)ethoxy)-[2,3′-bipyridin]-4′-yl)amino)cyclohexyl)methanol] | 0.1 nM | 0.1 nM | 0.1 nM | 0.1 nM | 0.2 nM |  |  |  |  |  |  |  | 0.6 nM | 0.2 nM | 0.3 nM | 0.2 nM | 99.2 nM |  |  | 
9 | O=S(=O)(C1CC1)n1cc(-c2nccc(Nc3cc(N[C@H]4CC[C@@H](CCO)CC4)c(-c4ccc(CC(F)(F)F)cn4)cn3)n2)cn1 [Example 223, 2-((1s,4s)-4-((6′-((2-(1-(Cyclopropylsulfonyl)-1H-pyrazol-4-yl)pyrimidin-4-yl)amino)-5-(2,2,2-trifluoroethyl)-[2,3′-bipyridin]-4′-yl)amino)cyclohexyl)ethan-1-ol] | 4.4 nM | 6.4 nM | 10.2 nM | 2.4 nM | 11.5 nM |  |  |  |  |  |  |  | 116 nM | 3.5 nM | 14.6 nM | 5 nM | > 10000 nM |  |  | 
10 | CN1CCC(Oc2ccc(-c3cnc(Nc4ccnc(-c5cnn(S(=O)(=O)C6CC6)c5)n4)cc3NC3CC(F)(F)C3)nc2)CC1 [Example 140, N^6′-(2-(1-(Cyclopropylsulfonyl)-1H-pyrazol-4-yl)pyrimidin-4-yl)-N^4′-(3,3-difluorocyclobutyl)-5-((1-methylpiperidin-4-yl)oxy)-[2,3′-bipyridine]-4′,6′-diamine] |  |  |  |  |  |  |  | 0.2 nM |  |  | 0.2 nM |  |  |  |  |  |  | 15.1 nM | 8.3 nM | 67.6 nM
11 | CN1CCC(F)(COc2cnc(-c3cnc(Nc4ccnc(-c5cnn(S(=O)(=O)C6CC6)c5)n4)cc3N[C@H]3CC[C@@](C)(O)CC3)cn2)CC1 [Example 154, (1s,4s)-4-((2-((2-(1-(Cyclopropylsulfonyl)-1H-pyrazol-4-yl)pyrimidin-4-yl)amino)-5-(5-((4-fluoro-1-methylpiperidin-4-yl)methoxy)pyrazin-2-yl)pyridin-4-yl)amino)-1-methylcyclohexan-1-ol] | 0.2 nM | 0.2 nM | 0.3 nM | 0.1 nM | 2.7 nM |  |  |  |  |  |  |  |  |  |  |  |  |  |  | 
12 | CC(C)(O)c1ccc(-c2cnc(Nc3ccnc(-c4cnn(S(=O)(=O)C5CC5)c4)n3)cc2N[C@H]2CC[C@@](C)(O)CC2)nc1 [Example 168, (1s,4s)-4-((6′-((2-(1-(Cyclopropylsulfonyl)-1H-pyrazol-4-yl)pyrimidin-4-yl)amino)-5-(2-hydroxypropan-2-yl)-[2,3′-bipyridin]-4′-yl)amino)-1-methylcyclohexan-1-ol] | 0.2 nM | 0.4 nM | 0.2 nM | 0.2 nM |  |  |  |  |  |  |  |  | 0.5 nM | 0.3 nM | 0.4 nM | 0.2 nM | 92.2 nM |  |  | 
13 | CN1CCC(Oc2ccc(-c3cnc(Nc4ccnc(-c5cnn(S(=O)(=O)C6CC6)c5)n4)cc3N[C@H]3CC[C@@](C)(O)CC3)nn2)CC1 [Example 269, (1s,4s)-4-((2-((2-(1-(Cyclopropylsulfonyl)-1H-pyrazol-4-yl)pyrimidin-4-yl)amino)-5-(6-((1-methylpiperidin-4-yl)oxy)pyridazin-3-yl)pyridin-4-yl)amino)-1-methylcyclohexan-1-ol] | 0.1 nM | 0.1 nM | 0.4 nM | 0.1 nM | 2.6 nM |  |  |  |  |  |  |  |  |  |  |  |  |  |  | 
14 | CC(C)(O)c1cc(-c2cnc(Nc3ccnc(-c4cnn(S(=O)(=O)C5CC5)c4)n3)cc2N[C@H]2CC[C@@H](CO)CC2)ncc1F [Example 105, 2-(6′-((2-(1-(Cyclopropylsulfonyl)-1H-pyrazol-4-yl)pyrimidin-4-yl)amino)-5-fluoro-4′-(((1s,4s)-4-(hydroxymethyl)cyclohexyl)amino)-[2,3′-bipyridin]-4-yl)propan-2-ol] |  |  |  |  |  | 5.4 nM | 3.2 nM | 2.1 nM | 3.9 nM | 1.2 nM |  | 787 nM |  |  |  |  |  | 0.6 nM | 3 nM | 5.3 nM
